From patent US20060035209A1, “Screening method” (priority 2002, published 2006)

Assays:
Format in all cases: in vivo, rat
TGF-β1 mRNA = TGF-β1 mRNA expression level in kidneys of Zucker fatty rats (real-time quantitative RT-PCR)
From the text: (§1) Male Zucker fatty rats (ZF rats, 18 weeks of age, Charles River Japan Inc.), which have hyperinsulinemia and spontaneously develop renal disease, were given oral administration of candesartan cilexetil (angiotensin II type 1 receptor antagonist) in suspension in 0.5% methylcellulose 100 cP once daily for 9 consecutive weeks. For a control group and a normal control group, male Zucker lean rats at the same weeks of age (ZL rats, Charles River Japan Inc.) were given oral administration of 0.5% methylcellulose 100 cP (vehicle) once daily for consecutive days. At 8 weeks of administration, 24-hour urine pooling was conducted, and urinary albumin excretion was measured using the A/G B Test Wako (Wako Pure Chemical Industries, Ltd.). At 9 weeks of administration, kidneys were collected and stored at −80° C. After the sample was disrupted, total RNA was extracted. A primer and a fluorescent probe were prepared on the basis of reported (ibidem) mRNA sequences, and various mRNA expression levels were measured by the real-time quantitative RT-PCR method using ABI PRISM7700 (Applied Biosystems).

TSC-22 mRNA = TSC-22 mRNA expression level in kidneys of Zucker fatty rats (real-time quantitative RT-PCR)
From the text: as §1

Zucker fatty rats = experiment: Urinary albumin excretion in Zucker fatty rats (24-hour urine pooling, A/G B Test Wako)
From the text: as §1

[1] = Zucker fatty rats, administration of the drug

CCOc1nc2cccc(C(=O)OC(C)OC(=O)OC3CCCCC3)c2n1Cc1ccc(-c2ccccc2-c2nnn[nH]2)cc1 (stereo not drawn) [Candesartan cilexetil, candesartan cilexetil]
increase in TGF-β1 mRNA expression level in the kidneys (in words) (TGF-β1 mRNA; [1]): suppressed
mRNA expression level of TGF-β1 in the kidneys (relative value with the expression level in the kidneys of Zucker lean rats as 1) (TGF-β1 mRNA; male ZF rats, oral once daily, kidneys collected at 9 weeks of administration, n = 8-9, Mean (ZF vehicle 2.1)): 1.2
increase in TSC-22 mRNA expression level in the kidneys (in words) (TSC-22 mRNA; [1]): suppressed
mRNA expression level of TSC-22 in the kidneys (relative value with the expression level in the kidneys of Zucker lean rats as 1) (TSC-22 mRNA; male ZF rats, oral once daily, kidneys collected at 9 weeks of administration, n = 8-9, Mean (ZF vehicle 2.4)): 1.6
increase in urinary albumin excretion (in words) (Zucker fatty rats; [1]): suppressed
Urinary albumin excretion (Zucker fatty rats; male ZF rats, oral once daily, at 8 weeks of administration, n = 8-9, Mean (ZF vehicle 401.5, ZL vehicle 48.5)): 61.7 mg/day
